Measurements reported in ChEMBL document CHEMBL4507281, “Data for DCP probe BI-4394” (2021).

Columns and labels:
[1] = molecular target: cGMP-dependent protein kinase 2 (Homo sapiens) (UniProt Q13237); settings: Compound concentration 100.0 nM
[2] = molecular target: Mitogen-activated protein kinase 12 (Homo sapiens) (UniProt P53778); settings: Compound concentration 100.0 nM
[3] = molecular target: T1, Protein kinase C epsilon type (Homo sapiens) (UniProt Q02156); settings: Compound concentration 100.0 nM
T1 sequence (whole entry): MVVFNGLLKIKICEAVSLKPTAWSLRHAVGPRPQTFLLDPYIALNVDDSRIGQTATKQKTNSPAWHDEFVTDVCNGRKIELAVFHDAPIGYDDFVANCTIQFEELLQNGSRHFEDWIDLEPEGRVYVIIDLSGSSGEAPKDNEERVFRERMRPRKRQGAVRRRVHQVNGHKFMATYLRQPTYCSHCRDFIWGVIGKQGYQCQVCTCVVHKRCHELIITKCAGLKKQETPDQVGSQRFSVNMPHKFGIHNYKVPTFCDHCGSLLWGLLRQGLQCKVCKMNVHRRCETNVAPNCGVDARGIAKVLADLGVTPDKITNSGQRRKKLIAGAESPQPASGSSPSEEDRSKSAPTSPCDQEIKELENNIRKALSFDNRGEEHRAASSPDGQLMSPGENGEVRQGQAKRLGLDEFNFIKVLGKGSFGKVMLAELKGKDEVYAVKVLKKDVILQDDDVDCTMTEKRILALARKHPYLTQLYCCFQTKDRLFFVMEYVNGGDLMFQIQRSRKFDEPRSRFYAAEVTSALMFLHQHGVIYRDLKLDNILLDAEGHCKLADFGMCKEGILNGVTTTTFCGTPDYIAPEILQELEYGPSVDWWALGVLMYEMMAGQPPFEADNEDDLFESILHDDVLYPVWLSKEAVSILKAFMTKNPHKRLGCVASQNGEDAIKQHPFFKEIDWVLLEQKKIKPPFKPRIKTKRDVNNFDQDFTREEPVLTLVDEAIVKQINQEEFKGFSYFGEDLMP

[4] = molecular target: Cyclin-dependent kinase 4 (Homo sapiens) (UniProt P11802); settings: Compound concentration 100.0 nM
Cyclin-dependent kinase 4 (Homo sapiens), sequence (P11802 whole entry): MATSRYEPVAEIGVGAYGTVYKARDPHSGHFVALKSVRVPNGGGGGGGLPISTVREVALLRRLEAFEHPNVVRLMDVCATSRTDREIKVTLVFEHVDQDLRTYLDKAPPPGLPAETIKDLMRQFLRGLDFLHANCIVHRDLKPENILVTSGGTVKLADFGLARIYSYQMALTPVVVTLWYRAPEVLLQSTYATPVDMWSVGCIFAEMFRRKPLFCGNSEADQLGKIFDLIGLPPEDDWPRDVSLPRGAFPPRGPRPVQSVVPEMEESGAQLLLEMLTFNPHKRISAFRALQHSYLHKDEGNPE

[5] = molecular target: Mitogen-activated protein kinase 1 (Homo sapiens) (UniProt P28482); settings: Compound concentration 100.0 nM
[6] = molecular target: Casein kinase I isoform delta (Homo sapiens) (UniProt P48730); settings: Compound concentration 100.0 nM
[7] = molecular target: Mitogen-activated protein kinase kinase kinase kinase 1 (Homo sapiens) (UniProt Q92918); settings: Compound concentration 100.0 nM
[8] = molecular target: Casein kinase II subunit alpha (Homo sapiens) (UniProt P68400); settings: Compound concentration 100.0 nM
Casein kinase II subunit alpha (Homo sapiens), sequence (P68400 whole entry, looked up): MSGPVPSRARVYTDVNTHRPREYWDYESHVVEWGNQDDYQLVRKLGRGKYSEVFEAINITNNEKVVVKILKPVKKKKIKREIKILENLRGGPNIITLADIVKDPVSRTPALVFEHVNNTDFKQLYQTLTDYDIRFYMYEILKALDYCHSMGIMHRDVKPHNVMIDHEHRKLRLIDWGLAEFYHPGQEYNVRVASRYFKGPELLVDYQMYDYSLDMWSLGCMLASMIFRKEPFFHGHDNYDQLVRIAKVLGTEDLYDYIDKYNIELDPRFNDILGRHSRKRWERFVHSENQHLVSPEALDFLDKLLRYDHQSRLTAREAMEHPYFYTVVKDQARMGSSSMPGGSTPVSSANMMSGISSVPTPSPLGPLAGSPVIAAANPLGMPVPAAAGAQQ

[9] = molecular target: Serine/threonine-protein kinase PLK3 (Homo sapiens) (UniProt Q9H4B4); settings: Compound concentration 100.0 nM
[10] = molecular target: Serine/threonine-protein kinase PAK 1 (Homo sapiens) (UniProt Q13153); settings: Compound concentration 100.0 nM
[11] = molecular target: Receptor-interacting serine/threonine-protein kinase 1 (Homo sapiens) (UniProt Q13546); settings: Compound concentration 100.0 nM
[12] = molecular target: Serine/threonine-protein kinase BRSK2 (Homo sapiens) (UniProt Q8IWQ3); settings: Compound concentration 100.0 nM
Serine/threonine-protein kinase BRSK2 (Homo sapiens), sequence (Q8IWQ3 whole entry): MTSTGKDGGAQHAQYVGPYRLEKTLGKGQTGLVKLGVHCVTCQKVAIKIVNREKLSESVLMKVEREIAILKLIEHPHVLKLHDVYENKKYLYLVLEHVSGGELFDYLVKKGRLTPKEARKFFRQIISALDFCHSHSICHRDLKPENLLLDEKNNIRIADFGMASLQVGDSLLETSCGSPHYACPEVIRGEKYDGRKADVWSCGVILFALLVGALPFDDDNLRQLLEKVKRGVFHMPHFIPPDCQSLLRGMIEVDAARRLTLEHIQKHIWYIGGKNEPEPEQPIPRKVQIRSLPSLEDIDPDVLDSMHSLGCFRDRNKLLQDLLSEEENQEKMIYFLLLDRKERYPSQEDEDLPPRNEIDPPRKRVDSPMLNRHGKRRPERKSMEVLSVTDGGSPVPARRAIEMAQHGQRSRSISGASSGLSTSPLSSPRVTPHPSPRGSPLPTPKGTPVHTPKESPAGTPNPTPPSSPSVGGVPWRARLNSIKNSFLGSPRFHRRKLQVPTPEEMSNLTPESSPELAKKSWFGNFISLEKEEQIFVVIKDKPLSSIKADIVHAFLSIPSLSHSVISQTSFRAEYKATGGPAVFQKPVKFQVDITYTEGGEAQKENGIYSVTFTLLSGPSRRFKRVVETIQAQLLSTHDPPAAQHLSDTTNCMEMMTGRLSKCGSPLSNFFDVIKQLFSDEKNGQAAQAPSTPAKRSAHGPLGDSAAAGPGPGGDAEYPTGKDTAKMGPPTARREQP

[13] = molecular target: Mast/stem cell growth factor receptor Kit (Homo sapiens) (UniProt P10721); settings: Compound concentration 100.0 nM
[14] = molecular target: Activin receptor type-2A (Homo sapiens) (UniProt P27037); settings: Compound concentration 100.0 nM
Activin receptor type-2A (Homo sapiens), sequence (P27037 whole entry): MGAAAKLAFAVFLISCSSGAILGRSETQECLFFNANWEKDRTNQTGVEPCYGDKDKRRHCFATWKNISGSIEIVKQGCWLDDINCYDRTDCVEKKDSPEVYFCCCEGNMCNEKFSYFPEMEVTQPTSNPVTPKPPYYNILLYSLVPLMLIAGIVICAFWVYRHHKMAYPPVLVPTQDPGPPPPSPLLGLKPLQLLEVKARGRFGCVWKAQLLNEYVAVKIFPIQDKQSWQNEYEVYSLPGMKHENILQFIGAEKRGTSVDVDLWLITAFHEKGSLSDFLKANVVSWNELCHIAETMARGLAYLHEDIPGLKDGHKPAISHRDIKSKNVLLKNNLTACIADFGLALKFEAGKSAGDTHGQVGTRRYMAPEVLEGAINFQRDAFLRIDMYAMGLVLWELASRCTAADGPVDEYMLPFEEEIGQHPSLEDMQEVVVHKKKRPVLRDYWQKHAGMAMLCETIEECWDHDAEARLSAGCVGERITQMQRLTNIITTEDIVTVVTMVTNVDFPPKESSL

[15] = molecular target: Microtubule-associated serine/threonine-protein kinase 1 (Homo sapiens) (UniProt Q9Y2H9); settings: Compound concentration 100.0 nM
[16] = molecular target: Ephrin type-A receptor 6 (Homo sapiens) (UniProt Q9UF33); settings: Compound concentration 100.0 nM
[17] = molecular target: Serine/threonine-protein kinase LATS1 (Homo sapiens) (UniProt O95835); settings: Compound concentration 100.0 nM
[18] = molecular target: Serine/threonine-protein kinase D1 (Homo sapiens) (UniProt Q15139); settings: Compound concentration 100.0 nM
Serine/threonine-protein kinase D1 (Homo sapiens), sequence (Q15139 whole entry): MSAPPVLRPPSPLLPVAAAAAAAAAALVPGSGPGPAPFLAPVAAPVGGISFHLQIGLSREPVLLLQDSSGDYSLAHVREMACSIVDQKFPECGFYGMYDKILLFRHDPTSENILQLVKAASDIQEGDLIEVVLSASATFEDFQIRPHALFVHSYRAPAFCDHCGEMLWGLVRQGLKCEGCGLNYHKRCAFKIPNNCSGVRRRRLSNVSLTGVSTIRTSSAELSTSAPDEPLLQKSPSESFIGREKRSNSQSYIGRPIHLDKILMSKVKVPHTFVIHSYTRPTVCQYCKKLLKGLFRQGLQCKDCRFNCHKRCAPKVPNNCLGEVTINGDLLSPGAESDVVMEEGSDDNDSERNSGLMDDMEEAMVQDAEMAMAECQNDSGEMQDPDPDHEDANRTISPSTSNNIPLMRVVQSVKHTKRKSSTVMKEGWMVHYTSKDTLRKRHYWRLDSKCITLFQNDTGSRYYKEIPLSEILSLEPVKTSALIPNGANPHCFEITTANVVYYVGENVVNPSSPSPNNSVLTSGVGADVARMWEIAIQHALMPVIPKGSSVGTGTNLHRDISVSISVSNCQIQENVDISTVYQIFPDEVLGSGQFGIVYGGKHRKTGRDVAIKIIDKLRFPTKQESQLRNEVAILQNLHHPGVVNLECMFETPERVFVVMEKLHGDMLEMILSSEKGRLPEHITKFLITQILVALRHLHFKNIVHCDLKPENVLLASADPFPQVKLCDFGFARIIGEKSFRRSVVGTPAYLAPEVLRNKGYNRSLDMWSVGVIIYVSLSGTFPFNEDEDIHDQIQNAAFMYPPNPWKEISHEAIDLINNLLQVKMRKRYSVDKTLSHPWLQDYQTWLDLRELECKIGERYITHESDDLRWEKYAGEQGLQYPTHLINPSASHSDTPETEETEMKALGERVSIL

[19] = molecular target: Protein kinase C theta type (Homo sapiens) (UniProt Q04759); settings: Compound concentration 100.0 nM
[20] = molecular target: Mitogen-activated protein kinase kinase kinase kinase 2 (Homo sapiens) (UniProt Q12851); settings: Compound concentration 100.0 nM
[21] = molecular target: Leukocyte tyrosine kinase receptor (Homo sapiens) (UniProt P29376); settings: Compound concentration 100.0 nM
Leukocyte tyrosine kinase receptor (Homo sapiens), sequence (P29376 whole entry): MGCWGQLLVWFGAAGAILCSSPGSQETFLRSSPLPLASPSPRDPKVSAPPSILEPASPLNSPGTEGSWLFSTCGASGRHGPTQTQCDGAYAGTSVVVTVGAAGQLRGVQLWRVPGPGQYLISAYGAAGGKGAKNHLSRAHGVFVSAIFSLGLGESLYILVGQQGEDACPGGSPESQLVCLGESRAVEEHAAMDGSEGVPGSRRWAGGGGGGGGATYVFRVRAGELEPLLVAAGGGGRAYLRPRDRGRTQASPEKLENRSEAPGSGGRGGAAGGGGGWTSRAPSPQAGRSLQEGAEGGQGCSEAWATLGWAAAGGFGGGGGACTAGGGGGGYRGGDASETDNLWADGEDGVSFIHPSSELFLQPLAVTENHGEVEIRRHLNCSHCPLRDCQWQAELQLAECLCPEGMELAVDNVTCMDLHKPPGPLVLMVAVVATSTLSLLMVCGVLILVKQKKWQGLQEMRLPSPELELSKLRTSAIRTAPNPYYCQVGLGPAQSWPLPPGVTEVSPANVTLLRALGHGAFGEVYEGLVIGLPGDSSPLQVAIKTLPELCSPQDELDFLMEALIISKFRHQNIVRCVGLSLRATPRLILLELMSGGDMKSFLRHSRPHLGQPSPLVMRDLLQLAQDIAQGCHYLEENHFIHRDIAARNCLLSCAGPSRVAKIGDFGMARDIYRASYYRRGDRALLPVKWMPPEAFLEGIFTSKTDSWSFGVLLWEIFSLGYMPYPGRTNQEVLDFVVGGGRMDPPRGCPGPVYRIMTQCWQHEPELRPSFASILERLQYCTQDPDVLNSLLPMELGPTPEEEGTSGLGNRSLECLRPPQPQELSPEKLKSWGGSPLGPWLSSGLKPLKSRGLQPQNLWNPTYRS

[22] = molecular target: Membrane-associated tyrosine- and threonine-specific cdc2-inhibitory kinase (Homo sapiens) (UniProt Q99640); settings: Compound concentration 100.0 nM
[23] = molecular target: Dual specificity mitogen-activated protein kinase kinase 2 (Homo sapiens) (UniProt P36507); settings: Compound concentration 100.0 nM
[24] = molecular target: Histamine H1 receptor (Homo sapiens) (UniProt P35367); settings: Compound concentration 10.0 uM
Histamine H1 receptor (Homo sapiens), sequence (P35367 whole entry): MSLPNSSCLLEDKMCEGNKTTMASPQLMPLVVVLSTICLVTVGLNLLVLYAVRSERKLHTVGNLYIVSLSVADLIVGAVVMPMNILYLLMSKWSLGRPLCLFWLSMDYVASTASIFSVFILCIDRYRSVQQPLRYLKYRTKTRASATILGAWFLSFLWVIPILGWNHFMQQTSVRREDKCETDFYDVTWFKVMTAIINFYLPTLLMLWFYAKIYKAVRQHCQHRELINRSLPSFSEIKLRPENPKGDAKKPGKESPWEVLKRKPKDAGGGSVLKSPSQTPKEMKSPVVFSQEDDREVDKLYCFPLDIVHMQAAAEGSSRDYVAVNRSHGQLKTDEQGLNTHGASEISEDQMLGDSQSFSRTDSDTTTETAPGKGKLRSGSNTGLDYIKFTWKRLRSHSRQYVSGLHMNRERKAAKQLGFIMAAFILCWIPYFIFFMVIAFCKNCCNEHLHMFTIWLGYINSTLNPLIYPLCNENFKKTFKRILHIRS

[25] = molecular target: T2, Tyrosine-protein kinase ZAP-70 (Homo sapiens) (UniProt P43403); settings: Compound concentration 100.0 nM
T2 sequence (whole entry): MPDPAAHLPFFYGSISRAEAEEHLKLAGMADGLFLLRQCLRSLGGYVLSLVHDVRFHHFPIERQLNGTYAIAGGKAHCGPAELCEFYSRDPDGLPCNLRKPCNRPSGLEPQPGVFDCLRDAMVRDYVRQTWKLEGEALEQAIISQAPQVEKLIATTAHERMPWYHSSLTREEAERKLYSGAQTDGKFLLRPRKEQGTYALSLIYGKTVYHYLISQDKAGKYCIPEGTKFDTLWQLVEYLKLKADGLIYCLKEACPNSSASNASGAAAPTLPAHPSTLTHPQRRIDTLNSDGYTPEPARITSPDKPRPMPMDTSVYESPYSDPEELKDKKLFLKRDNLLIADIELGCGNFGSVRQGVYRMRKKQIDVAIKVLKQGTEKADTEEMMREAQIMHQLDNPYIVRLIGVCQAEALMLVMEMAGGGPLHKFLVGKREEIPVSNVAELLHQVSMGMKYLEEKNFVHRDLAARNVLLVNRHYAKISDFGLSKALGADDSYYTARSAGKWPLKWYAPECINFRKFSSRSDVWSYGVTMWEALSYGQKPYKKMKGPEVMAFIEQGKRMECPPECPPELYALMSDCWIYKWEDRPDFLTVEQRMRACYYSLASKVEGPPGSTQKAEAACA

[26] = molecular target: Protein kinase C iota type (Homo sapiens) (UniProt P41743); settings: Compound concentration 100.0 nM
[27] = molecular target: Serine/threonine-protein kinase D2 (Homo sapiens) (UniProt Q9BZL6); settings: Compound concentration 100.0 nM

cGMP-dependent protein kinase 2 (Homo sapiens), sequence (Q13237 whole entry): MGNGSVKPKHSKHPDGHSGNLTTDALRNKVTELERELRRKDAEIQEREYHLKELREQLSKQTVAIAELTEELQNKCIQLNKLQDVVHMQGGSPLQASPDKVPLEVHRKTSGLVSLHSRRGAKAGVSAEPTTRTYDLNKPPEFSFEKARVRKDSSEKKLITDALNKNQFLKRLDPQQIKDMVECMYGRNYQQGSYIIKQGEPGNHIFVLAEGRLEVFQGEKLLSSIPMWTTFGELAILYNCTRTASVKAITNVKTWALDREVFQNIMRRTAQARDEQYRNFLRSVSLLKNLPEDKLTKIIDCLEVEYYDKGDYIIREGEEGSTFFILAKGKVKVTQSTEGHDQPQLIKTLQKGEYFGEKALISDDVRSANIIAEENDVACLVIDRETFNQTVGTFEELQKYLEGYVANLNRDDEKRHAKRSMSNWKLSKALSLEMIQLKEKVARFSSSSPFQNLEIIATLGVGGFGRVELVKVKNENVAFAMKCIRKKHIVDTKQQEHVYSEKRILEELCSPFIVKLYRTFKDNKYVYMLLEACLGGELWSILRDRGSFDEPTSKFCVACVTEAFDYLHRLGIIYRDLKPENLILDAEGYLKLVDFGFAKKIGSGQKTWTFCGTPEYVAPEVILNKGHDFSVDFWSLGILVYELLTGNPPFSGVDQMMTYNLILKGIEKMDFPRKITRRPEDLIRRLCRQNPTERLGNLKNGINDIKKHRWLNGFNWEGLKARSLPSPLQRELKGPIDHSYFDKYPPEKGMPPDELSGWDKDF

Cn1nc(C(=O)NCc2ccc(C(=O)O)cc2)cc1-c1ccc2[nH]ccc2c1 [BI 4395]
inactive: residual activity [1] 78% | residual activity [2] 90% | residual activity [3] 64% | residual activity [4] 96% | residual activity [5] 94% | residual activity [6] 84% | residual activity [7] 97% | residual activity [8] 68% | residual activity [9] 94% | residual activity [10] 86% | residual activity [11] 100% | residual activity [12] 100% | residual activity [13] 97% | residual activity [14] 98% | residual activity [15] 100% | residual activity [16] 100% | residual activity [17] 100% | residual activity [18] 95% | residual activity [19] 99% | residual activity [20] 85% | residual activity [21] 81% | residual activity [22] 93% | residual activity [23] 85% | inhibition [24] 8.74% | residual activity [25] 82% | residual activity [26] 80% | residual activity [27] 100%

CCOC(=O)c1cc2cc(-c3cc(C(=O)NCc4ccc(C(=O)O)cc4)nn3C)ccc2[nH]1 [BI 4394]
inactive: residual activity [1] 93% | residual activity [2] 77% | residual activity [3] 90% | residual activity [4] 82% | residual activity [5] 99% | residual activity [6] 81% | residual activity [7] 100% | residual activity [8] 81% | residual activity [9] 70% | residual activity [10] 92% | residual activity [11] 100% | residual activity [12] 67% | residual activity [13] 97% | residual activity [14] 59% | residual activity [15] 87% | residual activity [16] 94% | residual activity [17] 97% | residual activity [18] 75% | residual activity [19] 97% | residual activity [20] 84% | residual activity [21] 100% | residual activity [22] 100% | residual activity [23] 83% | inhibition [24] 9.64% | residual activity [25] 98% | residual activity [26] 87% | residual activity [27] 100%
